According to US4647563A, “Heterocyclic compounds” (Boehringer Ingelheim KG, priority 1978, dated 1987):
Like-named read-outs stand apart in the source and are kept apart here.

What was measured:
[1] = test system: acetylcholine bronchospasm; assay: Bronchospasmolysis: influence on acetylcholine bronchospasm in guinea pigs under urethane anaesthesia, body plethysmography; format: in vivo; conditions: Cavia porcellus
Protocol: 1. Bronchospasmolysis The activity was tested on guinea pigs under urethane anaesthesia. Body plethysmography was used to determine the influence on acetylcholine bronchospasm after intravenous and oral application.

[2] = Acute toxicity, LD50 in mice; conditions: mouse, in vivo
[3] = test system: heart rate; assay: Increase in heart rate at the ED50 of uterine relaxation on anesthetized rats; format: in vivo
Protocol: (§1) Uterine relaxation was investigated on anesthetized rats. The intravenous ED50 of uterine relaxation was determined in ug/kg (50% of the tested animals react) and the (undesirable) increase in heart rate at the ED50 value was also determined. The comparison compound was fenoterol.

[4] = test system: Uterine relaxation; assay: Uterine relaxation on anesthetized rats; format: in vivo; conditions: Rattus norvegicus, iv, read-out: Uterine relaxation ED50 i.v.
Protocol: as §1

[5] = intravenous, read-out: Broncholysis ED50 intravenous
[6] = oral, read-out: Broncholysis ED50 oral
[7] = anesthetized rats, 50% of the tested animals react

Question: What does the source list for `CC(C)(CCn1cnc2ccccc21)NCC(O)c1ccc(O)cc1F` (stereo not drawn) [Example 6, 1-(2-Fluoro-4-hydroxy-phenyl)-2-[4-(1-benzimidazolyl)-2-methyl-2-butylamino]-ethanol]?
Answer: ED50 [1, 5]: 3.6 µg/kg; ED50 [1, 6]: 7 µg/kg; LD50 ([2]; iv): 29000 µg/kg; LD50 ([2]; po): 300000 µg/kg

Question: With `CC(Cc1ccc(O)cc1)NCC(O)c1cc(O)cc(O)c1` (stereo not drawn) [Fenoterol, reference compound] as the compound, how does the “Increase in heart rate in comparison with fenoterol” value (from here on “Increase … with fenoterol”) ([3]; at the ED50 of uterine relaxation, fenoterol = 1, rats) read?
Answer: 1

Question: What about the “Increase in heart rate (beats per min.)” value ([3]; at the ED50 of uterine relaxation, i.v., anesthetized rats) of the same compound?
Answer: 36 beats per min.

Question: What about the ED50 [4] of the same compound?
Answer: 0.45 µg/kg

Question: With `CC(C)(C)NCC(O)c1ccc(O)c(CO)c1` (stereo not drawn) [Salbutamol, reference compound] as the compound, how does the ED50 [1, 5] read?
Answer: 9.2 µg/kg

Question: And the ED50 [1, 6]?
Answer: 1000 µg/kg

Question: What does the source list for `Cc1c(C(O)CNC(C)(C)CCn2nnc3ccccc32)ccc(O)c1O` (stereo not drawn) [Table II, 15th compound]?
Answer: Increase in heart rate in comparison with fenoterol ([3]; rat, in vivo): 2/3; Increase in heart rate (beats per min.) ([3]; rat, in vivo, iv): 23 beats per min.; ED50 [4, 7]: 0.44 µg/kg

Question: Which ED50 [1, 5] does the source give for `CC(=O)Nc1cc(C(O)CNC(C)(C)CCn2cnc3ccccc32)ccc1O` (stereo not drawn) [Table II, 16th compound] here?
Answer: 1.8 µg/kg

Question: And the ED50 [1, 6]?
Answer: 66 µg/kg

Question: For `CC(C)(CCn1cnc2ccccc21)NCC(O)c1ccc(O)cc1Cl` (stereo not drawn) [Table II, 21st compound], which ED50 [1, 5] is on record?
Answer: 7.6 µg/kg

Question: And the ED50 [1, 6]?
Answer: 190 µg/kg

Question: For `CC(C)(CCCn1cnc2ccccc21)NCC(O)c1ccc(O)c(NS(C)(=O)=O)c1` (stereo not drawn) [Table II, 24th compound], which “Increase … with fenoterol” value ([3]; rat, in vivo) is on record?
Answer: 1/2

Question: And the “Increase in heart rate (beats per min.)” value ([3]; rat, in vivo, iv)?
Answer: 18 beats per min.

Question: What about the ED50 [4, 7] of the same compound?
Answer: 0.5 µg/kg

Question: For `CC(C)(CCn1cnc2ccccc21)NCC(O)c1ccc(O)cc1` (stereo not drawn) [Table III 10th compound], which “Increase … with fenoterol” value ([3]; rat, in vivo) is on record?
Answer: 1/2

Question: What about the “Increase in heart rate (beats per min.)” value ([3]; rat, in vivo, iv) of the same compound?
Answer: 19 beats per min.

Question: What about the ED50 [4, 7] of the same compound?
Answer: 0.82 µg/kg

Question: Which results are given for `CC(C)(CCn1cnc2ccccc21)NCC(O)c1ccc(O)c(NC(N)=O)c1` (stereo not drawn) [Table III, 15th compound]?
Answer: ED50 [1, 5]: 0.9 µg/kg; ED50 [1, 6]: 14 µg/kg

Question: For `CC(C)(CCn1cnc2ccccc21)NCC(O)c1ccc(O)c(CO)c1` (stereo not drawn) [Table III, 16th compound], which ED50 [1, 5] is on record?
Answer: 1.2 µg/kg

Question: And the ED50 [1, 6]?
Answer: 7.6 µg/kg

Question: Which ED50 [1, 6] does the source give for `CC(C)(CCn1cnc2ccccc21)NCC(O)c1ccc(O)c2c1OCC(=O)N2` (stereo not drawn) [Table III, 24th compound] here?
Answer: 5.4 µg/kg
